# Reference: publication PMC8639922, “KSHV transactivator-derived small peptide traps coactivators to attenuate MYC and inhibits leukemia and lymphoma cell growth” (Communications Biology, 2021)
# Where “and” joins values, the source holds several entries; their conditions need not be identical. Identical values can stand only once. Square brackets hold non-standard residues; d marks the D form. Peptide text beside a SMILES is read from it. Orn = NCCC[C@H](N)C(=O)O; βAla = NCCC(=O)O
# Test system: KSHV lytic gene expression in TREx-K-Rta BCBL-1 cells
# Test: KSHV genome-wide qRT-PCR array
# Assay type: cell-based
# Conditions: D
# Method: Because VGN50 is derived from the KSHV transactivator sequence, we next examined if VGN50 can inhibit KSHV lytic replication by competitively blocking the coactivator binding to K-Rta. To study this, we used the TREx-K-Rta BCBL-1 cell line, in which we can trigger the expression of exogenous Flag-tagged K-Rta in a doxycycline (Dox) inducible manner. TREx-K-Rta BCBL-1 cells were treated with […] VGN50 or mutant peptide, with or without Dox induction. We used approximately one-half of the IC50 concentration of VGN50 to treat the TREx-K-Rta BCBL-1 cells in order to avoid cell toxicity effects that would non-specifically decrease viral gene expression. KSHV gene expression was profiled with a KSHV genome-wide PCR array, using ribosomal rRNA for normalization and as an internal control. Fold activation relative to the uninduced Mut-P-treated sample (not induced: Dox -) was determined and a heatmap for KSHV lytic gene expression was generated (Fig. 3a). […] Immunoblotting was used to confirm the induction of lytic replication by Dox based on exogenous K-Rta protein (Flag-K-Rta) and the expression of two other KSHV lytic proteins (ORF57 and K-bZIP) along with actin and KSHV LANA protein as controls for equal loading and similar viral copy numbers in samples, respectively (Fig. 3b).
# Fig. 3 Effects of VGN50 on KSHV gene transcription and VGN50 binding with SWI/SNF components. a KSHV qRT-PCR array analysis was used to study effects of VGN50 on KSHV gene transcription in a genome-wide manner. Uninduced (−; no doxycycline added) or dox-induced (+; 1 μg/ml) cells were treated with VGN50 or the mutant peptide (Mut-P) at a concentration of 24 μM. Samples were collected at 24 h post-treatment. Expression in uninduced cells was set as 1 for each viral gene and expression shown as fold activation relative to no-Dox samples. Selected cellular genes were also included in the PCR array for comparison. 18S ribosomal RNA was used as an internal control. b KSHV protein expression. Immunoblotting was performed to confirm both endogenous and exogenous K-Rta expression before (not induced) and after induction by Dox treatment (Dox-induced). Latent KSHV protein LANA and actin were used as controls for KSHV copy number (LANA) and loading (actin), respectively. Protein samples were collected 48-h post Dox incubation. c KSHV reactivation by VGN50 incubation. BCBL-1 and BC-1 cell lines were treated with VGN50 (16 μM concentration) and total RNA harvested at 24 h post treatment. KSHV PAN RNA expression was examined by qRT-PCR and relative expression over 18S rRNA is shown. Data are presented as mean ± SD (n = 3). d Purification of recombinant SWI/SNF components. SDS-PAGE analysis of five SWI/SNF components individually prepared from baculovirus-infected Sf9 cells. e A schematic illustration of ELISA assay to evaluate VGN50 and SWI/SNF interaction. f Analysis of VGN50 binding to SWI/SNF components by ELISA. Increasing concentrations of biotin-conjugated VGN50 or Mut-P were incubated in duplicate in an ELISA plate coated with each SWI/SNF component. Peptide binding measured as OD values at 450 nm are shown. Mean OD values were compared between the VGN50 and Mut-P in each concentration using unpaired t-test. **p < 0.01, *p < 0.05, NS no significance. Data are presented as mean ± SD with duplicated samples and repeated three times with different purified protein preps.
# [1] = values are 2^-ddCT (fold vs MT ND)
# [2] = values are 2^-ddCT (fold vs MT ND), listed as MT
smiles,measurement,setting,value
CC(C)C[C@H](NC(=O)CCNC(=O)[C@H](CCCNC(=N)N)NC(=O)[C@H](CCCNC(=N)N)NC(=O)[C@H](CCCNC(=N)N)NC(=O)[C@H](CCCN)NC(=O)[C@H](CCCNC(=N)N)NC(=O)[C@H](CCCNC(=N)N)NC(=O)[C@H](CCCCN)NC(=O)[C@H](CCCCN)NC(=O)[C@H](N)CCCNC(=N)N)C(=O)N[C@@H](CO)C(=O)N[C@@H](CO)C(=O)N[C@@H](C)C(=O)N[C@@H](C)C(=O)N[C@@H](C)C(=O)NCC(=O)N[C@@H](CC(C)C)C(=O)N[C@@H](Cc1ccc(O)cc1)C(=O)N[C@@H](CCC(N)=O)C(=O)N[C@@H](CC(C)C)C(=O)N[C@@H](CC(=O)O)C(=O)N[C@H](C(=O)O)[C@@H](C)O [Mt-P] (H-[dR]KKRR[Orn]RRR[βAla]LSSAAAGLYQLDT-OH; N-terminus and C-terminus assumed),IL- 6 ddCT (vs 18s and MT ND),,-2.234
same,IL- 10 ddCT (vs 18s and MT ND),,0.213
same,ORF21 fold vs MT ND (headed ddCT),,10.438
same,ORF 50 k-kta fold vs MT ND (headed ddCT),,158.652
same,k 2 fold vs MT ND (headed ddCT),,197.507
same,K 9 fold vs MT ND (headed ddCT),listed as MT,11.999 and 11.9991
same,K 10 fold vs MT ND (headed ddCT),listed as MT,11.665 and 11.6651
same,ORF2 fold vs MT ND (headed ddCT),listed as MT,35.093 and 35.0927
same,ORF4 fold vs MT ND (headed ddCT),listed as MT,46.543 and 46.5425
same,ORF6 fold vs MT ND (headed ddCT),listed as MT,13.632 and 13.6318
same,ORF7 fold vs MT ND (headed ddCT),listed as MT,12.162 and 12.1623
same,ORF8 fold vs MT ND (headed ddCT),listed as MT,10.223 and 10.2233
same,ORF9 fold vs MT ND (headed ddCT),listed as MT,6.076
same,ORF11 fold vs MT ND (headed ddCT),listed as MT,18.177 and 18.1766
same,ORF16 fold vs MT ND (headed ddCT),listed as MT,8.699 and 8.6991
same,ORF17 fold vs MT ND (headed ddCT),listed as MT,6.815
same,ORF18 fold vs MT ND (headed ddCT),listed as MT,4.417
same,ORF19 fold vs MT ND (headed ddCT),listed as MT,8.897
same,ORF 20 fold vs MT ND (headed ddCT),listed as MT,5.481
same,ORF22.1 fold vs MT ND (headed ddCT),listed as MT,6.976
same,ORF23 fold vs MT ND (headed ddCT),listed as MT,4.718
same,ORF24 fold vs MT ND (headed ddCT),listed as MT,6.384
same,ORF 25 fold vs MT ND (headed ddCT),listed as MT,4.629
same,ORF26 fold vs MT ND (headed ddCT),listed as MT,6.591
same,ORF27 fold vs MT ND (headed ddCT),listed as MT,19.313 and 19.3133
same,ORF28 fold vs MT ND (headed ddCT),listed as MT,5.046
same,ORF29 fold vs MT ND (headed ddCT),listed as MT,22.418 and 22.4181
same,ORF30 fold vs MT ND (headed ddCT),listed as MT,5.617
same,ORF31 fold vs MT ND (headed ddCT),listed as MT,9.188
same,ORF32 fold vs MT ND (headed ddCT),listed as MT,3.227
same,ORF33 fold vs MT ND (headed ddCT),listed as MT,10.461 and 10.4609
same,ORF34 fold vs MT ND (headed ddCT),listed as MT,6.891
same,ORF35 fold vs MT ND (headed ddCT),listed as MT,7.441
same,ORF36 fold vs MT ND (headed ddCT),listed as MT,21.557 and 21.5571
same,ORF37 fold vs MT ND (headed ddCT),listed as MT,14.520 and 14.5196
same,ORF38 fold vs MT ND (headed ddCT),listed as MT,28.906 and 28.9062
same,ORF39 fold vs MT ND (headed ddCT),listed as MT,11.635 and 11.6345
same,ORF40 fold vs MT ND (headed ddCT),listed as MT,4.674
same,ORF41 fold vs MT ND (headed ddCT),listed as MT,21.065 and 21.0654
same,ORF42 fold vs MT ND (headed ddCT),listed as MT,3.993
same,ORF43 fold vs MT ND (headed ddCT),listed as MT,8.726
same,ORF44 fold vs MT ND (headed ddCT),listed as MT,33.337 and 33.3373
same,ORF45 fold vs MT ND (headed ddCT),listed as MT,53.618 and 53.6182
same,ORF 46 fold vs MT ND (headed ddCT),listed as MT,6.457
same,ORF 47 fold vs MT ND (headed ddCT),listed as MT,62.278 and 62.2783
same,ORF48 fold vs MT ND (headed ddCT),listed as MT,31.118 and 31.1177
same,ORF49 fold vs MT ND (headed ddCT),listed as MT,16.390 and 16.3905
same,ORF52 fold vs MT ND (headed ddCT),listed as MT,27.531 and 27.5312
same,ORF53 fold vs MT ND (headed ddCT),listed as MT,16.215 and 16.2146
same,ORF54 fold vs MT ND (headed ddCT),listed as MT,10.079 and 10.0788
same,ORF55 fold vs MT ND (headed ddCT),listed as MT,10.827 and 10.8272
same,ORF56 fold vs MT ND (headed ddCT),listed as MT,13.04
same,ORF57 fold vs MT ND (headed ddCT),listed as MT,22.128 and 22.1283
same,ORF70 fold vs MT ND (headed ddCT),listed as MT,15.204 and 15.2038
same,T1.5 ori RNA fold vs MT ND (headed ddCT),listed as MT,26.465 and 26.4646
same,k 1 fold vs MT ND (headed ddCT),listed as MT,7.768
same,k 3 fold vs MT ND (headed ddCT),listed as MT,12.567 and 12.5669
same,k 4 fold vs MT ND (headed ddCT),listed as MT,33.463 and 33.4629
same,k 6 -2 fold vs MT ND (headed ddCT),listed as MT,13.375 and 13.3749
same,k 7 real fold vs MT ND (headed ddCT),listed as MT,14.740 and 14.7397
same,pan set 2 fold vs MT ND (headed ddCT),listed as MT,11.431 and 11.4312
same,"EGFP ddCT (vs 18s and MT ND), second block",[1],2.182
same,"IL- 6 ddCT (vs 18s and MT ND), second block",[1],4.704
same,"ORF67 ddCT (vs 18s and MT ND), second block",[1],1.460
same,"ORF68 ddCT (vs 18s and MT ND), second block",[1],3.433
same,"ORF74 ddCT (vs 18s and MT ND), second block",[1],1.662
same,"k 14 ddCT (vs 18s and MT ND), second block",[1],1.713
same,"IL- 10 ddCT (vs 18s and MT ND), second block",[2],0.863 and 0.8629
same,"K 11 ddCT (vs 18s and MT ND), second block",[2],85.514 and 85.5135
same,"K 12 ddCT (vs 18s and MT ND), second block",[2],1.587
same,"K 15 ddCT (vs 18s and MT ND), second block",[2],1.316
same,"ORF 58 ddCT (vs 18s and MT ND), second block",[2],7.125
same,"ORF59 ddCT (vs 18s and MT ND), second block",[2],3.052
same,"ORF60 ddCT (vs 18s and MT ND), second block",[2],1.439
same,"ORF61 ddCT (vs 18s and MT ND), second block",[2],2.555
same,"ORF 62 ddCT (vs 18s and MT ND), second block",[2],2.303
same,"ORF63 ddCT (vs 18s and MT ND), second block",[2],4.399
same,"ORF64 ddCT (vs 18s and MT ND), second block",[2],5.462 and 5.4617
same,"ORF65 ddCT (vs 18s and MT ND), second block",[2],2.091
same,"ORF66 ddCT (vs 18s and MT ND), second block",[2],6.232
same,"ORF69 ddCT (vs 18s and MT ND), second block",[2],3.398
same,"ORF71 ddCT (vs 18s and MT ND), second block",[2],6.849
same,"ORF72 ddCT (vs 18s and MT ND), second block",[2],2.075
same,"ORF 73 ddCT (vs 18s and MT ND), second block",[2],1.648
same,"ORF75 ddCT (vs 18s and MT ND), second block",[2],1.427
same,"T0.7 #1 ddCT (vs 18s and MT ND), second block",[2],5.275
same,"T0.7 #2 ddCT (vs 18s and MT ND), second block",[2],2.071
same,"T1.5 #2 ddCT (vs 18s and MT ND), second block",[2],13.571 and 13.5709
same,"VIRF3 ddCT (vs 18s and MT ND), second block",[2],5.775
